Among the test systems are MDA-MB-231 breast; MALME-3M melanoma; MOLT-4 leukemia; LOX IMVI melanoma; U251 CNS; SF-268 CNS; HCT-15 colon; SK-MEL-28 melanoma; RPMI-8226 leukemia; ACHN renal; OVCAR-5 ovarian; A549 NSCLC; MDA-N; OVCAR-8 ovarian; SK-MEL-2 melanoma; TK-10 renal; UACC-257 melanoma; NCI/ADR-RES ovarian; DU-145 prostate; HCC-2998 colon.
Test in all cases: NCI tumour cell line growth inhibition, 48 h

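Grown in 96-well plates, cells were treated for 48 hours with each compound at five concentrations. Insufficient inhibition: endpoint recorded as highest concentration tested. Definition used: TGI = concentration required for complete inhibition of growth.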

In the case of `Cn1c2ccccc2c2c3c(c4c5ccccc5n(C5OC(CO)C(O)C(O)C5O)c4c21)C(=O)OC3=O` (stereo not given), the TGI with MDA-MB-231 breast, in the assay on MALME-3M melanoma, in the assay with MOLT-4 leukemia, with LOX IMVI melanoma, in the assay with U251 CNS and with SF-268 CNS was more than 100 µM each time. Moreover, the TGI in the assay with HCT-15 colon, in the assay on SK-MEL-28 melanoma, in the assay on RPMI-8226 leukemia, in the assay on ACHN renal, with OVCAR-5 ovarian and with A549 NSCLC was more than 100 µM throughout. Besides, the TGI with MDA-N, in the assay on OVCAR-8 ovarian, in the assay on SK-MEL-2 melanoma, in the assay on TK-10 renal, with UACC-257 melanoma and with NCI/ADR-RES ovarian was more than 100 µM each time. Also, the TGI in the assay on DU-145 prostate and in the assay on HCC-2998 colon was more than 100 µM in each case.
Regarding `COCN1C(=N)C(C(=O)OC(C)(C)C)=C2C=C(O)C=CC21C` (stereo not given), the TGI in the assay with MDA-MB-231 breast was 29 µM; with MALME-3M melanoma, 21.3 µM; with MOLT-4 leukemia, more than 100 µM; in the assay with LOX IMVI melanoma it was 26.5 µM; with U251 CNS it was 30.6 µM; in the assay with SF-268 CNS, 29.5 µM. In addition, the TGI in the assay with HCT-15 colon was 27.5 µM; in the assay with SK-MEL-28 melanoma, 36.3 µM; with RPMI-8226 leukemia it was more than 100 µM; in the assay with ACHN renal, 19.6 µM; in the assay with OVCAR-5 ovarian it was 32.5 µM; in the assay on A549 NSCLC, 34.9 µM. Also, the TGI was 31.9 µM in the assay on MDA-N; 55.7 µM with OVCAR-8 ovarian; 31.9 µM in the assay on SK-MEL-2 melanoma; 26.2 µM in the assay on TK-10 renal; 22.5 µM in the assay with UACC-257 melanoma; 69 µM in the assay on NCI/ADR-RES ovarian. Also, the figures for the TGI in the assay on DU-145 prostate and in the assay on HCC-2998 colon were 24.2 µM and 40.5 µM, respectively.
Take `O=C(O)/C=C/c1ccc(OS(=O)(=O)O)cc1`: the TGI with MDA-MB-231 breast, with MALME-3M melanoma, with MOLT-4 leukemia, with LOX IMVI melanoma, in the assay with U251 CNS and with SF-268 CNS was more than 100 µM each time. Also, the TGI with HCT-15 colon, in the assay on SK-MEL-28 melanoma, in the assay with RPMI-8226 leukemia, in the assay on ACHN renal, in the assay on OVCAR-5 ovarian and in the assay on A549 NSCLC was more than 100 µM each time. For the same compound, the TGI in the assay on MDA-N, in the assay with OVCAR-8 ovarian, in the assay on SK-MEL-2 melanoma, in the assay on TK-10 renal, with UACC-257 melanoma and in the assay with NCI/ADR-RES ovarian was more than 100 µM in each case. The TGI in the assay on DU-145 prostate and in the assay on HCC-2998 colon was more than 100 µM throughout.
For the compound `O=C1/C(=C/c2ccccc2)CCc2ccc([N+](=O)[O-])cc21`, the TGI with MDA-MB-231 breast, in the assay with MALME-3M melanoma, in the assay on MOLT-4 leukemia, in the assay with LOX IMVI melanoma, with U251 CNS and in the assay on SF-268 CNS was more than 100 µM throughout. The TGI was more than 100 µM in the assay with HCT-15 colon; more than 100 µM with SK-MEL-28 melanoma; 7.13 µM in the assay with RPMI-8226 leukemia; more than 100 µM in the assay with ACHN renal; more than 100 µM in the assay with OVCAR-5 ovarian; more than 100 µM in the assay with A549 NSCLC. The TGI in the assay with MDA-N was more than 100 µM; with OVCAR-8 ovarian it was more than 100 µM; in the assay on SK-MEL-2 melanoma, 38.3 µM; with TK-10 renal, more than 100 µM; with UACC-257 melanoma it was more than 100 µM; in the assay on NCI/ADR-RES ovarian, more than 100 µM. Also, the TGI in the assay on DU-145 prostate and in the assay with HCC-2998 colon was more than 100 µM in each case.
Regarding `COC(=O)c1sc2c(=O)c(C(=O)OC)c(C(=O)OC)sc2c(=O)c1C(=O)OC`, the TGI with MDA-MB-231 breast, in the assay on MALME-3M melanoma, in the assay on MOLT-4 leukemia, in the assay with LOX IMVI melanoma, in the assay on U251 CNS and in the assay on SF-268 CNS was more than 100 µM in each case. In addition, the TGI in the assay with HCT-15 colon, in the assay on SK-MEL-28 melanoma, with RPMI-8226 leukemia, in the assay with ACHN renal, with OVCAR-5 ovarian and with A549 NSCLC was more than 100 µM throughout. For the same compound, the TGI in the assay with MDA-N, with OVCAR-8 ovarian, in the assay on SK-MEL-2 melanoma, in the assay on TK-10 renal, in the assay on UACC-257 melanoma and in the assay on NCI/ADR-RES ovarian was more than 100 µM in each case. In addition, the TGI in the assay with DU-145 prostate and with HCC-2998 colon was more than 100 µM throughout.

For the origin of these results see PubChem BioAssay (NCI).
